Reference: US20230320956A1, “DIARYLALKANE COMPOUNDS AND COMPOSITIONS FOR USE WITH SKIN AGING AND METHODS OF PRODUCTION THEREOF” (Unigen, Inc., priority 2022, published 2023)

What was measured:
[1] = tested on: skin brightness/luminance, Asian subjects; assay: Self-assessment of skin brightness/luminance, Asian subjects; format: in vivo, human; conditions: Week 8
Procedure: Included subjects were: • 1. Female subjects between the ages of 35-66 (inclusive) in general good health • 2. Asian subjects who had skin brightness/luminance score of “5” (moderately dull/sallow appearance) or greater on the face (for qualification only) as assessed by a trained technician and whose brightness/luminance were evaluated according to the following scale: 0—No dullness/sallowness visible, 1-3—Slightly dull/sallow appearance, 4-6—Moderately dull/sallow appearance, 7-9—Severely dull/sallow appearance. • 3. […] Individuals who could read, understand, and sign the Informed Consent form. • 5. […] At all visits, a trained technician evaluated the face of each subject for irritation. […] Results: Skin brightness/luminance (Asian subjects): In order to determine any changes in skin brightness/luminance, skin brightness (luminosity) was analyzed by Visia CR®. Facial luminance was a single number calculated based on the uniformity of the lightening of the image. […] There were no significant changes to brightness/luminance as assessed by the Visia CR® analysis at any of the clinic visits, although the Mean Score for skin brightness/luminance trended toward an increase at 4 and 8 weeks after starting dimethoxytolyl propylresorcinol use compared to Baseline (Table 24), indicating an improvement in skin brightness/luminance.

[2] = tested on: skin blotchiness/age spots, Caucasian subjects; assay: Self-assessment of skin blotchiness/age spots, Caucasian subjects; format: in vivo, human; conditions: Week 8
Procedure: Skin Blotchiness/Age Spots (Caucasian subjects): In order to determine any changes in skin blotchiness/age spots, chroma was analyzed by Visia CR®. The degree to which a color is free from being mixed with other colors is a good indication of its chromacity. An increase in the chroma score represented an improvement in skin blotchiness/age spots. A decrease represented a worsening. At each visit, Caucasian subjects rated their skin blotchiness/age spots according to the following scale: 0—No skin blotchiness or age spots visible, 1-3—Slight areas of skin blotchiness or age spots visible, 4-6—Moderate areas of skin blotchiness or age spots visible, 7-9—Severe areas of skin blotchiness or age spots visible. Additionally, at the final visit, subjects completed a questionnaire. There were no significant changes to skin blotchiness/age spots as assessed by the Visia CR® analysis at any of the clinic visits, although the Mean Score for skin blotchiness/age spots trended toward an increase at all 2, 4, and 8 weeks after starting dimethoxytolyl propylresorcinol use compared to Baseline, indicating an improvement in skin blotchiness/age spots (Table 27).

COc1ccc(CCCc2ccc(O)cc2O)c(OC)c1C [dimethoxytolyl propylresorcinol, 1-(3-methyl-2,4-dimethoxyphenyl)-3-(2′,4′-dihydroxyphenyl)-propane]
Self-Assessment Skin Brightness/Luminance % Improvement from Baseline [1]: 13%
Self-Assessment Skin Blotchiness/Age Spots % Improvement from Baseline [2]: 37%
